Experimental data as given in BigSolDB 2.1.

C[C@]12CC[C@@H]3c4ccc(O)cc4CC[C@H]3[C@@H]1C[C@@H](O)[C@@H]2O
solubility (mole fraction)
Details	293.2 K	298.2 K	303.2 K	308.2 K	313.2 K	318.2 K	323.2 K	328.2 K
in 2-aminoethanol	0.0111	0.0127	0.0148	0.018	0.0214	0.0254	0.0314	0.0363
in DMF	0.00112	0.00158	0.00258	0.00426	0.00581	0.00958	0.013	0.018
in NMP	0.000415	0.000677	0.00105	0.00174	0.00275	0.00364	0.00491	0.00718
in morpholine-4-carbaldehyde	6.2e-05	0.00023	0.000652	0.00147	0.00343	0.00495	0.00726	0.0107
in n-dodecane	0.00072	0.000779	0.00092	0.000956	0.00128	0.00179	0.00243	0.00285
in n-hexadecane	0.00114	0.00147	0.00175	0.00219	0.00251	0.00299	0.00335	0.00382
in n-nonanol	0.0074	0.00863	0.0104	0.0116	0.0131	0.0147	0.0168	0.0199
in n-octane	0.000621	0.000735	0.000873	0.00103	0.00123	0.00138	0.00152	0.00186
in n-octanol	0.00593	0.00678	0.00747	0.00868	0.0104	0.0121	0.0147	0.0171
in n-pentanol	0.00243	0.00285	0.00367	0.00468	0.00594	0.00809	0.00967	0.0121
in sec-butanol	0.00189	0.0025	0.0032	0.00403	0.00453	0.00533	0.00668	0.00812
in water	0.000115	0.000135	0.000168	0.000191	0.000306	0.000422	0.000577	0.000803

C[C@@H]1CC[C@@]2(OC1)O[C@H]1C[C@H]3[C@@H]4CC=C5C[C@@H](O)CC[C@]5(C)[C@H]4CC[C@]3(C)[C@H]1[C@@H]2C
solubility (mole fraction)
Details	293.2 K	298.2 K	303.2 K	308.2 K	313.2 K	318.2 K	323.2 K	328.2 K
in 2-aminoethanol	0.00142	0.00218	0.0042	0.00625	0.00807	0.00914	0.011	0.0132
in DMF	0.00113	0.00159	0.00232	0.00369	0.00461	0.00587	0.00794	0.0116
in NMP	0.0118	0.0128	0.0138	0.0148	0.0163	0.0178	0.0196	0.0219
in acetonitrile	0.00359	0.00529	0.00675	0.00894	0.0125	0.0151	0.0188	0.0221
in morpholine-4-carbaldehyde	0.00663	0.00809	0.00976	0.012	0.0147	0.0162	0.0181	0.0198
in n-dodecane	0.000266	0.000351	0.000439	0.000542	0.000631	0.000743	0.000898	0.00105
in n-hexadecane	0.000256	0.000373	0.000465	0.000626	0.000949	0.00131	0.00171	0.00244
in n-nonanol	0.0067	0.00825	0.00965	0.011	0.0123	0.0132	0.0145	0.0155
in n-octane	8.1e-05	0.00013	0.00016	0.00021	0.000302	0.000466	0.00068	0.000915
in n-octanol	0.00348	0.00423	0.00516	0.0066	0.00842	0.00947	0.0104	0.0116
in sec-butanol	0.000128	0.000229	0.000436	0.000784	0.00119	0.0017	0.00253	0.00366
